Columns and labels:
[1] = system: EW-3 (Ewing's Sarcoma); assay: Bliss excess, mean over the matrix (fraction); higher = more synergy
Outline: (§1)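 Cell lines in DMEM/F12 or RPMI with 10% FBS were plated in 1536-well plates, held 24 hours at 37°C, 5% CO2, then given two-drug dose matrices for 72 hours (DMSO typically 0.2%). Viability was read by CellTiter-Glo 2.0 luminescence and scaled as inhibition from 0 (vehicle wells) to 1 (blank wells). Combination Emax is the second-highest inhibition in the matrix; Bliss excess is observed combination effect minus expected EA + EB − EA·EB, EA and EB being single-agent effects.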

[2] = system: GI-1 (Glioblastoma); assay: as above
Outline: as §1

[3] = system: H-EMC-SS (Chondrosarcoma); assay: as above
Outline: as §1

[4] = system: HSC-2 (Oral Cavity Carcinoma); assay: as above
Outline: as §1

[5] = system: JHH-7 (Hepatocellular Carcinoma); assay: as above
Outline: as §1

[6] = system: KINGS-1 (Low Grade Glioma); assay: as above
Outline: as §1

[7] = system: LC4-1 (B-Lymphoblastic Leukemia); assay: as above
Outline: as §1

[8] = system: NB7 (Neuroblastoma); assay: as above
Outline: as §1

[9] = system: NCI-N87 (Gastric Carcinoma); assay: as above
Outline: as §1

[10] = system: OCUB-M (Breast Carcinoma); assay: as above
Outline: as §1

[11] = system: OCUM-1 (Gastric Carcinoma); assay: as above
Outline: as §1

[12] = system: SCC-9 (Oral Cavity Carcinoma); assay: as above
Outline: as §1

[13] = system: SNU-C1 (Colorectal Carcinoma); assay: as above
Outline: as §1

[14] = system: TGBC11TKB (Gastric Carcinoma); assay: as above
Outline: as §1

[15] = system: VMRC-LCD (Lung Adenocarcinoma); assay: as above
Outline: as §1

[16] = system: EW-3 (Ewing's Sarcoma); assay: combination Emax (second highest fraction inhibited in the dose matrix, 72 h); higher = more inhibition; extreme values may be limits of the assay
Outline: as §1

[17] = system: GI-1 (Glioblastoma); assay: as above
Outline: as §1

[18] = system: H-EMC-SS (Chondrosarcoma); assay: as above
Outline: as §1

[19] = system: HSC-2 (Oral Cavity Carcinoma); assay: as above
Outline: as §1

[20] = system: JHH-7 (Hepatocellular Carcinoma); assay: as above
Outline: as §1

[21] = system: KINGS-1 (Low Grade Glioma); assay: as above
Outline: as §1

[22] = system: LC4-1 (B-Lymphoblastic Leukemia); assay: as above
Outline: as §1

[23] = system: NB7 (Neuroblastoma); assay: as above
Outline: as §1

[24] = system: NCI-N87 (Gastric Carcinoma); assay: as above
Outline: as §1

[25] = system: OCUB-M (Breast Carcinoma); assay: as above
Outline: as §1

[26] = system: OCUM-1 (Gastric Carcinoma); assay: as above
Outline: as §1

[27] = system: SCC-9 (Oral Cavity Carcinoma); assay: as above
Outline: as §1

[28] = system: SNU-C1 (Colorectal Carcinoma); assay: as above
Outline: as §1

[29] = system: TGBC11TKB (Gastric Carcinoma); assay: as above
Outline: as §1

[30] = system: VMRC-LCD (Lung Adenocarcinoma); assay: as above
Outline: as §1
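Wherever Bliss excess, mean over the matrix is given: after 72 h of two-drug dosing.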

| SMILES | Bliss excess [1] | Bliss excess [2] | Bliss excess [3] | Bliss excess [4] | Bliss excess [5] | Bliss excess [6] | Bliss excess [7] | Bliss excess [8] | Bliss excess [9] | Bliss excess [10] | Bliss excess [11] | Bliss excess [12] | Bliss excess [13] | Bliss excess [14] | Bliss excess [15] | combination Emax [16] | combination Emax [17] | combination Emax [18] | combination Emax [19] | combination Emax [20] | combination Emax [21] | combination Emax [22] | combination Emax [23] | combination Emax [24] | combination Emax [25] | combination Emax [26] | combination Emax [27] | combination Emax [28] | combination Emax [29] | combination Emax [30] |
| --- | --- | --- | --- | --- | --- | --- | --- | --- | --- | --- | --- | --- | --- | --- | --- | --- | --- | --- | --- | --- | --- | --- | --- | --- | --- | --- | --- | --- | --- | --- |
| CN(CCO)CC[C@H](CSc1ccccc1)Nc1ccc(S(=O)(=O)NC(=O)c2ccc(N3CCC([C@@H](O)c4ccccc4-c4ccc(Cl)cc4)CC3)cc2)cc1S(=O)(=O)C(F)(F)F [AZD4320] + CC(=O)O[C@H]1C(=O)[C@@]2(C)[C@H]([C@H](OC(=O)c3ccccc3)[C@]3(O)C[C@H](OC(=O)[C@H](O)[C@@H](NC(=O)c4ccccc4)c4ccccc4)C(C)=C1C3(C)C)[C@]1(OC(C)=O)CO[C@@H]1C[C@@H]2O [Paclitaxel] (first compound max 1 µM, 7x7, partner max 3 µM) | 0.0269 | 0.0374 | 0.0785 | 0.0087 | 0.144 | 0.18 | 0.0047 | 0.131 | 0.182 | 0.0811 | 0.0074 | 0.109 | 0.179 | 0.0373 | 0.0035 | 0.961 | 1 | 0.672 | 1 | 0.951 | 0.966 | 1 | 0.94 | 0.921 | 1 | 0.955 | 0.745 | 0.829 | 0.994 | 0.918 |
| O=C(c1cc(Cc2n[nH]c(=O)c3ccccc23)ccc1F)N1CCN(C(=O)C2CC2)CC1 [Olaparib] + CN(CC[C@H](CSC1=CC=CC=C1)NC2=C(C=C(C=C2)S(=O)(=O)NC(=O)C3=CC=C(C=C3)N4CCC(CC4)[C@H](C5=CC=CC=C5C6=CC=C(C=C6)Cl)O)S(=O)(=O)C(F)(F)F)CCO [AZD4320] (first compound max 10 µM, 7x7, partner max 1 µM) | 0.0125 | 0.0255 | 0.0051 | 0.0039 | -0.0326 | -0.0792 | 0.0153 | -0.0251 | -0.0729 | -0.0115 | 0.0129 | -0.0395 | -0.055 | 0.0082 | -0.029 | 0.904 | 0.302 | 0.422 | 0.201 | 0.203 | 0.646 | 1 | 0.393 | 0.503 | 0.454 | 0.834 | 0.398 | 0.613 | 0.42 | 0.114 |
| C[C@@H](Nc1cc(F)cc(F)c1)c1cc(C(=O)N(C)C)cc2c(=O)cc(N3CCOCC3)oc12 [AZD8186] + CC(=O)c1c(C)c2cnc(Nc3ccc(N4CCNCC4)cn3)nc2n(C2CCCC2)c1=O [Palbociclib] (first compound max 10 µM, 7x7, partner max 10 µM) | 0.0752 | 0.0438 | -0.0127 | 0.0014 | -0.0086 | 0.0318 | 0.202 | 0.211 | 0.0255 | -0.0466 | 0.0111 | 0.0322 | 0.0065 | 0.0002 | 0.006 | 0.392 | 0.454 | 0.474 | 0.533 | 0.216 | 0.398 | 0.641 | 0.932 | 0.656 | 0.252 | 0.36 | 0.382 | 0.37 | 0.178 | 0.165 |
| O=C(c1cc(Cc2n[nH]c(=O)c3ccccc23)ccc1F)N1CCN(C(=O)C2CC2)CC1 [Olaparib] + CC1(C)CCC(CN2CCN(c3ccc(C(=O)NS(=O)(=O)c4ccc(NCC5CCOCC5)c([N+](=O)[O-])c4)c(Oc4cnc5[nH]ccc5c4)c3)CC2)=C(c2ccc(Cl)cc2)C1 [Venetoclax] (first compound max 10 µM, 7x7, partner max 1 µM) | 0.0351 | 0.0518 | -0.0572 | -0.0219 | -0.032 | -0.0359 | 0.0096 | -0.0285 | -0.0552 | -0.0483 | -0.0472 | -0.047 | -0.0425 | -0.0224 | -0.0266 | 0.887 | 0.265 | 0.119 | 0.115 | 0.173 | 0.131 | 1 | 0.301 | 0.121 | 0.17 | 0.172 | 0.0718 | 0.0848 | 0.183 | 0.151 |
| O=C(c1cc(Cc2n[nH]c(=O)c3ccccc23)ccc1F)N1CCN(C(=O)C2CC2)CC1 [Olaparib] + Cc1c2c(nn1C)CSCc1cc(n(C)n1)CSc1cc(c3ccccc3c1)OCCCc1c(C(=O)O)n(C)c3c-2c(Cl)ccc13 [AZD5991] (first compound max 10 µM, 7x7, partner max 1 µM) | -0.0215 | 0.0065 | -0.0401 | -0.0082 | -0.0457 | -0.0514 | -0.0181 | -0.0154 | -0.0285 | -0.0142 | -0.0497 | -0.0478 | -0.0155 | 0.0015 | -0.0349 | 0.869 | 0.51 | 0.129 | 0.88 | 0.0758 | 0.0927 | 0.955 | 0.595 | 0.203 | 0.924 | 0.0756 | 0.154 | 0.362 | 0.509 | 0.111 |
| Cc1c2c(nn1C)CSCc1cc(n(C)n1)CSc1cc(c3ccccc3c1)OCCCc1c(C(=O)O)n(C)c3c-2c(Cl)ccc13 [AZD5991] + Nc1ccn([C@@H]2O[C@H](CO)[C@@H](O)C2(F)F)c(=O)n1 [Gemcitabine] (first compound max 1 µM, 7x7, partner max 0.3 µM) | 0.0096 | -0.0002 | -0.005 | 0.0273 | -0.0114 | -0.0719 | 0.0158 | 0.0093 | -0.0095 | 0.0283 | -0.0565 | -0.0216 | 0.0119 | -0.0006 | 0.0333 | 0.935 | 0.86 | 0.594 | 0.992 | 0.314 | 0.195 | 0.975 | 0.844 | 0.61 | 1 | 0.656 | 0.237 | 0.449 | 0.929 | 0.539 |
| C=CCn1c(=O)c2cnc(Nc3ccc(N4CCN(C)CC4)cc3)nc2n1-c1cccc(C(C)(C)O)n1 [AZD1775] + Nc1ccn([C@@H]2O[C@H](CO)[C@@H](O)C2(F)F)c(=O)n1 [Gemcitabine] (first compound max 1 µM, partner max 0.3 µM) | 0.0204 | 0.0649 | 0.014 | 0.0227 | -0.0298 | -0.0065 | 0.0478 | 0.0441 | -0.0481 | 0.0679 | 0.0616 | 0.0215 | -0.0308 | 0.0011 | -0.0497 | 0.904 | 0.916 | 0.649 | 0.947 | 0.399 | 0.341 | 0.945 | 0.721 | 0.735 | 0.955 | 0.656 | 0.375 | 0.485 | 0.918 | 0.6 |
| C[C@@H](Oc1cc(-c2cnn(C3CCNCC3)c2)cnc1N)c1c(Cl)ccc(F)c1Cl [Crizotinib] + CC1=C(C(=CC=C1)Cl)NC(=O)C2=CN=C(S2)NC3=CC(=NC(=N3)C)N4CCN(CC4)CCO [Dasatinib] (first compound max 10 µM, 7x7, partner max 2 µM) | -0.0728 | 0.132 | -0.004 | -0.0097 | -0.0142 | 0.0575 | -0.0147 | 0.0924 | -0.0251 | -0.0666 | -0.0693 | 0.0429 | -0.056 | -0.0343 | -0.0545 | 0.571 | 0.969 | 0.402 | 0.923 | 0.422 | 0.788 | 0.866 | 0.689 | 0.607 | 0.391 | 0.354 | 0.966 | 0.683 | 0.176 | 0.657 |
| C[C@@H](Oc1cc(-c2cnn(C3CCNCC3)c2)cnc1N)c1c(Cl)ccc(F)c1Cl [Crizotinib] + Cn1cnc2c(F)c(Nc3ccc(Br)cc3Cl)c(C(=O)NOCCO)cc21 [Selumetinib] (first compound max 10 µM, 7x7, partner max 10 µM) | -0.134 | -0.0355 | -0.0166 | -0.0618 | -0.0152 | 0.0342 | -0.0198 | -0.0033 | -0.0764 | 0.0034 | 0.0251 | 0.0117 | 0.0325 | 0.0524 | -0.0474 | 0.525 | 0.602 | 0.405 | 0.551 | 0.56 | 0.799 | 0.896 | 0.443 | 0.383 | 0.458 | 0.936 | 0.919 | 0.892 | 0.557 | 0.665 |
